Data as given in US12558369B2, “Compositions and methods of treating Fanconi Anemia” (Dana-Farber Cancer Institute, Inc., priority 2015, dated 2026).
Entries after “also recorded” stand apart in the source; their conditions may differ.

Columns and labels:
GM6914 = assay: MMC cell viability (CellTiterGlo) to identify IC90; format: cell-based, human; conditions: GM6914, MMC for 7 days
Method: FIG. 7. Identification of IC90 concentration of MMC on GM6914 and validation of genome wide RNAi screening for MMC resistance. • A) Identification of IC90 concentration of MMC on GM6914. Cells were treated with different doses of MMC for 7 days, and cell viability was measured using CellTiterGlo reagent. […] Cells were transduced with 6 pools of shRNA retrovirus libraries, and selected with puromycin for 48 h. Cells were then treated with MMC for 7 days, and resistant cells were harvested to re-assess their MMC sensitivity by treated with MMC for 3 days. Data shown represented cells transduced by pool #3, 5 and 6. • C) FANCA deficient fibroblast cells (GM6914) were evaluated for MMC sensitivity after shRNA mediated knockdown of SMAD3 and TP53. Survival was measured after 3 days exposure to indicated concentrations of MMC. […] Error bars represent s.e.m. • D) FANCD2 deficient fibroblast cells (PD20) were evaluated for MMC sensitivity after RNAi mediated knockdown of SMAD3 and TP53. Survival was measured after 3 days exposure to indicated concentrations of MMC. […]
(§1) For survival assays, cells were seeded at a density of 1×10^3 cells per well in 96-well plates. After 3-6 days of culture in indicated concentrations of MMC or post exposure of acetaldehyde, viability was assessed using CellTiterGlo reagent (Promega). […] Colonies were counted after crystal violet staining.

EUFA316 = assay: Acetaldehyde sensitivity survival assay; format: cell-based, human; conditions: EUFA316 cells
Method: (§2) FIG. 1. TGFβ pathway disruption enhances FA cellular growth. • A) RIGER P value analysis to identify top candidate genes. • B) Clonogenic survival of GM6914 (FA-A fibroblasts) and FANCA-corrected GM6914 cells after shRNA mediated knockdown of SMAD3. Cells were treated with increasing doses of MMC and plated for 10-12 days. The average of two experiments is presented; error bars represent s.e.m.
(§3) For survival assays, cells were seeded at a density of 1×10^3 cells per well in 96-well plates. After 72 hours of culture in indicated concentrations of MMC or post exposure of acetaldehyde, viability was assessed using CellTiterGlo reagent (Promega). In order to assess clonogenicity, cells were seeded at a low density (500-1000 cells per well) in 6-well plates and allowed to form colonies. The cells were then fixed in methanol/20% acetic acid and stained with 1% crystal violet. Colony formation was assessed by solubilizing crystal violet stain with methanol and quantifying UV absorbance for each condition.
as §1

U2OS cells [1] = assay: Immunoblot of DNA-PK phosphorylation; format: cell-based, human
Fancd2−/− HSPCs = assay: Clonogenic assay of HSPCs in methylcellulose; format: cell-based, mouse; conditions: TGF-β1 1 ng/mL, Ab 10 μg/mL or SD208 10 μM; colonies after 7-10 days
Method: (§4) (A) Expression of phospho-Smad2/3 proteins in HSPCs from WT and Fancd2−/− mice as detected by flow cytometric analysis. (B) Quantification of mean fluorescence intensity (MFI) of phospho-Smad2/3 staining by flow cytometric analysis shown in (A) in HSPCs from WT and Fancd2−/− mice. (C) Fancd2−/− HSPCs are more sensitive to TGF-β1 than WT HSPCs. Sorted Lin− cells from WT or Fancd2−/− mice were exposed to TGF-β1. After 5 days in culture, LSK cells were analyzed by flow cytometry and quantified. Data are shown after normalizing to untreated WT group. […] Sorted Lin− cells from WT and Fancd2−/− mice were exposed to TGF-β1 (1 ng/mL) with or without TGF-beta 1,2,3 Ab (10 μg/mL) or SD208 (10 μM), and viable cells were counted after 5 days in culture. Data shown are after normalizing to untreated WT group. Error bars represent mean±s.e.m. (F) Clonogenic assay of WT and Fancd2−/− HSPCs treated with TGF-β1, TGF-beta 1, 2, 3 Ab or SD208. […] Hematopoietic colonies were counted after 7-10 days in culture. […] (I) Representative FACS plots of LSK cells analyzed by flow cytometry for GFP expression after 5 days in vitro culture in stem cell culture medium. […] Luciferase activity was measured. (L) Binding of FANCD2 to SMAD1 promoter (region −2108 to −1950 bp) upon DNA damage as detected by ChIP assay using anti-FANCD2 antibody in corrected GM6914 (+FANCA) but not GM6914 (+Vector) fibroblast cells. […]

[2] = tested on: Lin− cells from WT and Fancd2−/− mice; assay: Bone marrow Lin− cell growth under TGF-β1; format: cell-based, mouse; conditions: TGF-β1 1 ng/mL; Ab 10 μg/mL or SD208 10 μM; 5 days
Method: as §4

[3] = tested on: EUFA316 (FA-G fibroblasts); assay: MMC sensitivity survival assay of FA cells with TGFβ pathway inhibitors; format: cell-based, human
Method: as §2, §3
For survival assays, cells were seeded at a density of 1×10^3 cells per well in 96-well plates. After 3-6 days of culture in indicated concentrations of MMC or post exposure of acetaldehyde, viability was assessed using CellTiterGlo reagent (Promega). In order to assess clonogenicity, cells were seeded at a low density (500-1000 cells per well) in 6-well plates and allowed to form colonies. The cells were then fixed in methanol/20% acetic acid and stained with 1% crystal violet. Colonies were counted after crystal violet staining.

U2OS cells [4] = assay: NHEJ reporter assay; format: cell-based, human; conditions: template reporter assay
[5] = tested on: GM6914 cells (FA-A cells); assay: Traffic light reporter (TLR) assay of HR and NHEJ; format: cell-based, human; conditions: GM6914, 10 μM SD208, 72 hrs
From the text: FIG. 17. TGF-β pathway Inhibition Increases HR and Decreases NHEJ activities in FA Cells. • (A, B) TGF-β pathway inhibition affects the choice of HR versus NHEJ pathways in repairing individual DNA breakpoints in FA cells. GM6914 cells (FA-A cells) or FANCA corrected GM6914 cells with shControl or shSMAD3 were used to generate traffic light reporter system, and then were infected with GFP-donor template and I-SceI lentivirus to generate DNA breakpoints. Quantification analysis of HR and NHEJ repair events is shown. (B) The ratio of HR to NHEJ activity based on the data in (A). […] Quantification of HR and NHEJ repair events in GM6914 cells exposed to SD-208 for 72 hrs as detected by traffic light reporter assay described in (A). […] HR assay was measured in U2OS cells with DR-GFP reporter after transduction with lentivirus encoding indicated shRNAs. The representative of three independent experiments is presented. […] (F, G) TGF-β pathway inhibition promotes HR activity in FA cells. Representative images (F) and quantification (G) of RAD51 foci in MMC treated GM6914 (FA-A) cells or FANCA corrected GM6914 cells with shRNA-mediated knockdown of SMAD3. […] One hundred cells were scored for RAD51 foci. […]
the presence of 8 μg/mL polybrene. […] Genome engineering events were analyzed by flow cytometry at 72 hours after transduction. NHEJ is represented by mCherry fluorescence, and HR by GFP fluorescence.

mouse fibroblast cells = assay: Immunoblot of Smad2 phosphorylation; format: cell-based; conditions: immunoblot of lysates

CO[C@@]12[C@H](COC(N)=O)C3=C(C(=O)C(C)=C(N)C3=O)N1C[C@@H]1N[C@@H]12 [MMC, mitomycin C]
IC90 (GM6914): 19 nM

Fc1ccc(Cl)cc1-c1nc(Nc2ccncc2)c2nccnc2n1 [SD208]
survival in the presence of acetaldehyde (EUFA316): significantly promoted survival | phosphorylation of DNA-PK (U2OS cells [1]): blocks phosphorylation of DNA-PK | clonogenic ability of Fancd2−/− HSPCs (Fancd2−/− HSPCs): markedly enhanced the clonogenic ability | inhibitory effect of TGF-β1 on bone marrow Lin− cell growth [2]: rescues inhibitory effect of TGF-β1 | FA cells survival in the presence of MMC ([3]; FA cell lines with inhibitor): improved FA cells survival in the presence of MMC | cytotoxicity of corrected FA cells ([3]; corrected FA cells): do not significantly alter cytotoxicity of corrected FA cells | NHEJ activity (U2OS cells [4]): decreased NHEJ | HR activity / HR events [5]: increased HR activity; also recorded: increases HR events | NHEJ events [5]: decreases NHEJ events | phosphorylation of Smad2 (mouse fibroblast cells): reduced phosphorylation of Smad2
